Molecules are shown by their SMILES.

For assay [1], the system named is ER-positive breast cancer. The conditions noted are these: preclinical studies, in vivo and in vitro; cited from earlier work.
For another assay, the target named is T1, KAT6B (Homo sapiens, UniProt Q8WYB5).
T1 construct: purchased ACTIVE MOTIF 81224
Kind of assay: Inhibition of human KAT enzymes, radioisotope method: KAT6B. In kind it is biochemical. The settings on record: KAT6B (718-1008). From the text:
(§1) Test Example 2: Selective Inhibitory Effects of Test Compounds on Human KAT6 Enzymes (Radioisotope Method)
(§2) • 1. KAT6A (ACTIVE MOTIF, Cat. No. 81223) • 2. KAT5 (BPS, Cat. No. 79422) • 3. KAT7 (ACTIVE MOTIF, Cat. No. 31889) • 4. KAT6B (ACTIVE MOTIF, Cat. No. 81224) • 5. Acetyl coenzyme A, [Acetyl-^3H, 250 μCi (9.25 MBq](PEIRKIN4 ELMER, Cat. No. NET290250UC) • 6. Acetyl coenzyme A (CAYMVAN, Cat. No. 16160) • 7. 384-well Flashplate (Perkin Elmer, Cat. No. SMP410A001PK) • 8. Garcinol (MCE, Cat. No. HY-107569) • 9. Automatic microplate pipetting system (Precision, PRC384U, BioTek) • 10. Ultrasonic nanoliter liquid handling system (Echo 650 Liquid Handler, Echo 650, Labcyte) • 11. Centrifuge (Avanti J-15R, Beckman Coulter) • 12. Liquid scintillation counter (Microplate Counter, Microbeta2, Perkin Elmer)
(§3) • 1. For KAT6A and KAT7, a 1× assay buffer was prepared as follows: 10 mM Tris-HCl pH 8.0, 0.01% Tween-20, and 1 mM DTT; for KAT6B and KAT5, a 1× assay buffer was prepared as follows: 50 mM Tris-HCl pH 8.0, 0.05% Tween-20, and 1 mM DTT. • 2. Compound preparation: For KAT6A, KAT6B, and KAT7, the final concentration of the compounds started at 1 μM, followed by a 5-fold serial dilution across a total of 7 concentration gradients; for KAT5, the final concentration of the compounds started at 10 μM, followed by a 5-fold serial dilution across a total of 7 concentration gradients. • 3. Substrate reaction solution preparation: The mixed substrates of H4 peptide and [3H]acetyl coenzyme A at final concentrations were prepared using the respective 1× assay buffers, as shown in Table 4.
(§4) • 1. The enzyme solution was transferred to 384-well reaction plates at 10 μL/well. For each negative control well, 10 μL of the 1× assay buffer was transferred. The plates were then centrifuged at 1000 RPM for 1 min and incubated at room temperature for 15 min. • 2. The substrate reaction solution was added at 10 μL/well, and the plates were centrifuged at 1000 RPM for 1 min to start the reaction. • 3. The samples for KAT6A, KAT6B, KAT7, KAT8, and KAT5 were then incubated at room temperature for 60 min, 120 min, 45 min, 60 min, and 120 min, respectively. • 4. Stop solution preparation: A stop solution was prepared by diluting 50 µM cold Ac-CoA in 1× buffer. • 5. The stop solution was added at 10 μL/well, and the plates were centrifuged at […] for 1 min to stop the reaction. • 6. The mixtures in the reaction plates were transferred at 25 μL/well to new plates (Streptavidin FlashPlate HTS PLUS, High Capacity, 384-well). • 7. The plates were incubated at room temperature for at least 60 min and then • 8. read using MicroBeta2.
(§5) Raw data were obtained in EXCEL, and the inhibition rates were calculated:
(§6) [formula] [formula] • Max signal: reaction signal from enzyme and substrate; • Sample signal: signal from sample; • Min signal: signal from substrate only (negative control).
(§7) The inhibition rate data were imported into XLFit Excel, and IC50 values were obtained using formula (2):
(§8) [formula] [formula] • Top: value of the top plateau of the fitted regression curve; • Bottom: value of the bottom plateau of the fitted regression curve; • HillSlope: slope of the fitted regression curve.
(§9) The IC50 value was substituted into formula (3) to obtain the enzymatic activity inhibition constant Ki:
(§10) [formula] • [S]: substrate concentration; Km: Michaelis constant.

Assay [2] relates to breast cancer cell line ZR-75-1. The assay is described as follows: Inhibition of proliferation of breast cancer cell line ZR-75-1 (CellTiter-Glo). In kind it is cell-based. The settings on record: Homo sapiens, 240 h, proliferation of ZR-75-1 cells, 10 days of incubation, read-out: IC50 (KAT6A). A general note: Cellular ATP, detected with luciferase, serves as a proxy for viable cell number.

The target of another assay is T2, KAT6A (Homo sapiens, UniProt Q92794).
T2 construct: purchased ACTIVE MOTIF 81223
The assay is described as follows: Inhibition of human KAT enzymes, radioisotope method: KAT6A. In kind it is biochemical. The conditions noted are these: KAT6A (488-778).
Source text: as §1, §2, §3, §4, §5, §6, §7, §8, §9, §10

The next assay addresses T3, KAT5 (Homo sapiens, UniProt Q92993).
T3 construct: purchased BPS 79422
The assay is described as follows: Inhibition of human KAT enzymes, radioisotope method: KAT5. In kind it is biochemical. The conditions noted are these: for Ki: KAT5 (full-length), radioisotope method; for KAT5/ KAT6A / KAT5/ KAT6B: selectivity, ratio of Ki.
Source text: as §1, §2, §3, §4, §5, §6, §7, §8, §9, §10

A further assay deals with T4, KAT7 (Homo sapiens, UniProt O95251).
T4 construct: purchased ACTIVE MOTIF 31889
T4 sequence (O95251 whole entry): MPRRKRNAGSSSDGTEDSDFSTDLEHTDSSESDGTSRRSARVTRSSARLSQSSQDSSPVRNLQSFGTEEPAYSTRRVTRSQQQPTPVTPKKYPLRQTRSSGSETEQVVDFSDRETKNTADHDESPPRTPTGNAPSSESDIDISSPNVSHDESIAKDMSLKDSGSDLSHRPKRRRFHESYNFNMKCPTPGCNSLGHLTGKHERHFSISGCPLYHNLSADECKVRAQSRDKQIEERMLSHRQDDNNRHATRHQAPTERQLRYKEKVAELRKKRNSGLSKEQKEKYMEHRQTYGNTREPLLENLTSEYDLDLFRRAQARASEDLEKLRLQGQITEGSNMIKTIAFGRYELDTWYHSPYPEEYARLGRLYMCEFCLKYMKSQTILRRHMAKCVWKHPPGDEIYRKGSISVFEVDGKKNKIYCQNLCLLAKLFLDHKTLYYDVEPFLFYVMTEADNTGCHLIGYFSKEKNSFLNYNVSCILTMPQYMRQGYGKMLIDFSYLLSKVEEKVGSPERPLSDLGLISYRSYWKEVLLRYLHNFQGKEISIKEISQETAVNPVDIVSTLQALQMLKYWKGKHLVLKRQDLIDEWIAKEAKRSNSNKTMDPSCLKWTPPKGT
The assay is described as follows: Inhibition of human KAT enzymes, radioisotope method: KAT7. In kind it is biochemical. The conditions noted are these: for Ki: KAT7 (full-length), radioisotope method; for KAT7/ KAT6A / KAT7/ KAT6B: selectivity, ratio of Ki.
Source text: as §1, §2, §3, §4, §5, §6, §7, §8, §9, §10

T3 sequence (Q92993 whole entry): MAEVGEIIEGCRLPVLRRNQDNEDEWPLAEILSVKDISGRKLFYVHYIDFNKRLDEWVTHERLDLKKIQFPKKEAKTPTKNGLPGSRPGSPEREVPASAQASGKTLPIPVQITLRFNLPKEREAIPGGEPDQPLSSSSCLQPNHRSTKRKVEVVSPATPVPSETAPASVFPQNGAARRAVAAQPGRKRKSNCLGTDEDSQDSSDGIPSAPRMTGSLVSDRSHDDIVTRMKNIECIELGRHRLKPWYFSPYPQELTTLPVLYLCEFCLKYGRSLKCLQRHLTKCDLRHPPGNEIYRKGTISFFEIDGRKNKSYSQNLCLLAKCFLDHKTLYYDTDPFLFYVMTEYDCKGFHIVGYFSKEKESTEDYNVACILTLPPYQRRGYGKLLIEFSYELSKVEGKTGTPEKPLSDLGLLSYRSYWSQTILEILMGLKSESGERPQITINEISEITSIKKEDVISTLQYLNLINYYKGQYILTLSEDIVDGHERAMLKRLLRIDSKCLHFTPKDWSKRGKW
T1 sequence (Q8WYB5 whole entry): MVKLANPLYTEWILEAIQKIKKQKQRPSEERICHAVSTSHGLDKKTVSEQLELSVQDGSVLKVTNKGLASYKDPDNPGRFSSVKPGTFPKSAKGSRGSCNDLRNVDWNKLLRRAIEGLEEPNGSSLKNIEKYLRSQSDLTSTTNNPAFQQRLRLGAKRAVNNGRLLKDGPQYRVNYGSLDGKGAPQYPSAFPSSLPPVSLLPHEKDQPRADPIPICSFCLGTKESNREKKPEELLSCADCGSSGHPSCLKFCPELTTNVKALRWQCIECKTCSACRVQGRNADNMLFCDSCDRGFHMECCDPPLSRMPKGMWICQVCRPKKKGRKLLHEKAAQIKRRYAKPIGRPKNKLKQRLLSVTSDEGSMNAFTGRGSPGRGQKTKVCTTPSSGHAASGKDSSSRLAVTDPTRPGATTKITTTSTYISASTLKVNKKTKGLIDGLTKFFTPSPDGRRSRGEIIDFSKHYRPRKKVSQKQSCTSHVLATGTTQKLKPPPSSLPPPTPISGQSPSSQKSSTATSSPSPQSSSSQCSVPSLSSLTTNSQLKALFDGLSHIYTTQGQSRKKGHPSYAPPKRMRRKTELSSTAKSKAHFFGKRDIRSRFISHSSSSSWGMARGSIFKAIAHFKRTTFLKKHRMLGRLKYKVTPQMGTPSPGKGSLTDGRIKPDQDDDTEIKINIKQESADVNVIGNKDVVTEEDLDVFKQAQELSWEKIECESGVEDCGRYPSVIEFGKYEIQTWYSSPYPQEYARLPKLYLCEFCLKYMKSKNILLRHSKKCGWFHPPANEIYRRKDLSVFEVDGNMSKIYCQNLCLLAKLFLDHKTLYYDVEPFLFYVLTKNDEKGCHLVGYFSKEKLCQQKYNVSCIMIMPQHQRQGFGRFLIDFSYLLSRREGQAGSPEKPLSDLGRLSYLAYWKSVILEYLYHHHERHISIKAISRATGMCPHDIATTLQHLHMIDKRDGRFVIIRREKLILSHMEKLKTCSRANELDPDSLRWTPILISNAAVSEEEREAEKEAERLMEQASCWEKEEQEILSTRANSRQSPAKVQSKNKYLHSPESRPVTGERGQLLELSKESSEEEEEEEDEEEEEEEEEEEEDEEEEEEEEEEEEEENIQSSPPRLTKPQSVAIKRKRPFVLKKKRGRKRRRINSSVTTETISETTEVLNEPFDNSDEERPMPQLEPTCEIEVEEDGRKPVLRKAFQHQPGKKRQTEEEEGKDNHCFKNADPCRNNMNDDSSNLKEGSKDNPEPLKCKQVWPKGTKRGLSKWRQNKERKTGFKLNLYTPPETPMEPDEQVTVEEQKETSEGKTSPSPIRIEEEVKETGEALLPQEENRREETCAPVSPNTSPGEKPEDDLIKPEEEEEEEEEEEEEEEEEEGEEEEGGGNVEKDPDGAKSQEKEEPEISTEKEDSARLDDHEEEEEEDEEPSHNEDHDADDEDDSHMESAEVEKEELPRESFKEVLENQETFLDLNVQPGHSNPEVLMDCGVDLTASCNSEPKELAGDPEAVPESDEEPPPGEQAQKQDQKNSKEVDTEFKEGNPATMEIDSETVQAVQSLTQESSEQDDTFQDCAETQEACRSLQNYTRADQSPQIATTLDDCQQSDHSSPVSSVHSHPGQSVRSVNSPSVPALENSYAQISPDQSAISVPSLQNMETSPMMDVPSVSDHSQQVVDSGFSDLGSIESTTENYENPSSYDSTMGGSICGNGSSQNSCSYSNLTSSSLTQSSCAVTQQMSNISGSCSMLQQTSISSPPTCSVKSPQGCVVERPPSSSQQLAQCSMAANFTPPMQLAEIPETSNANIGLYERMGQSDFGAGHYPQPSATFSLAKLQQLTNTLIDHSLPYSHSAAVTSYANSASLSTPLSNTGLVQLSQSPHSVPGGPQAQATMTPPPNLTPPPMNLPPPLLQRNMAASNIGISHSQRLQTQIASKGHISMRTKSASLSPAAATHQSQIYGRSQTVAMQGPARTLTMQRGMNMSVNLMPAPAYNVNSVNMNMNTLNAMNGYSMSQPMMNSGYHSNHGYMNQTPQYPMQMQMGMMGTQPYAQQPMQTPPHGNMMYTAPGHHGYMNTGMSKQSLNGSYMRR

`COc1cccc(OC)c1S(=O)(=O)Nc1noc2cc(Cn3cccn3)cc(OC)c12` [CTx-648]: the “anti-tumor activity against ER-positive breast cancer” value in assay [1] was “excellent in vivo and in vitro anti-tumor activity”.

Consider `COc1ccc2c(c1S(=O)(=O)Nc1noc3cc(Cn4cccn4)c(F)c(OC)c13)OCCN2C(C)=O` [Compound 110, N-(6-((1H-Pyrazol-1-yl)methyl)-5-fluoro-4-methoxybenzo[d]isoxazol-3-yl)-4-acetyl-7-methoxy-3,4-dihydro-2H-benzo[b][1,4]oxazine-8-sulfonamide], for which the Ki (usually a measure of affinity in units of concentration, obtained from inhibition or displacement) at KAT6B was 1.6 nM. Further, the IC50 (in general, the concentration at which inhibition is half-maximal) in assay [2] lay within 0.5 to 2 nM. Besides, the affinity on KAT6A corresponds to a Ki of 0.29 nM. At KAT5, affinity was put at a Ki of 1150 nM, the “KAT5/ KAT6A” value is on record as 3967 and the “KAT5/ KAT6B” value is reported as 719. In addition, on KAT7, affinity was put at a Ki of 64.5 nM, the “KAT7/ KAT6A” value is 223 and the “KAT7/ KAT6B” value is 40.

`COc1ccc2c(c1S(=O)(=O)Nc1noc3cc(Cn4cccn4)c(F)c(OC)c13)OCCN2S(C)(=O)=O` [Compound 121, N-(6-((1H-Pyrazol-1-yl)methyl)-5-fluoro-4-methoxybenzo[d]isoxazol-3-yl)-7-methoxy-4-(methylsulfonyl)-3,4-dihydro-2H-benzo[b][1,4]oxazine-8-sulfonamide] showed an inhibitory constant (Ki) on KAT6B of 0.9 nM. Also, the IC50 in assay [2] lay within 2 to 10 nM. The molecule further registered a Ki at KAT6A of 0.28 nM. Further, at KAT5, affinity was put at a Ki of 577 nM, the “KAT5/ KAT6A” value was determined as 2061 and the “KAT5/ KAT6B” value amounted to 641. For the same molecule, at KAT7, the Ki was determined as 96 nM, the “KAT7/ KAT6A” value stood at 343 and the “KAT7/ KAT6B” value came out at 107.

(Values after patent US20260174778A1, “SULFONAMIDE COMPOUND, AND PREPARATION METHOD THEREFOR AND USE THEREOF” (SHANGHAI HENLIUS BIOTECH, INC., priority 2023, published 2026).)
